According to US8921567B2, “Process for preparing N-substituted 1H-pyrazole-5-carbonylchloride compounds” (BASF SE, priority 2011, dated 2014):

Assay: log P determination via capillary electrophorese on a cePro9600 from CombiSep
Type: physicochemical
Settings: pH = 10.0
Experimental: log P determinations were performed via capillary electrophorese on a cePro9600™ from CombiSep.

SMILES | logP
Cc1cccc(C(=O)N=S2CCSC2)c1NC(=O)c1cc(C(F)(F)F)nn1-c1ncccc1Cl (centres unmarked) [Example 208] | logP: 2.2 [pH = 10.0];
Cc1cc(Cl)cc(C(=O)N=S(C(C)C)C(C)C)c1NC(=O)c1cc(C(F)(F)F)nn1-c1ncccc1Cl [compound 24] | logP: 3.3 [pH = 10.0];
